pIC50, pKi: −log10 of the molar value.
Target: not listed separately
Assay: Inhibition of Penicillium decumbens Alpha-L-rhamnosidase
Conditions: not given

SMILES | pIC50
O[C@@H]1[C@@H]2[C@@H](O)[C@H](O)[C@@H](O)CN2C[C@@H]1O | 3.28

Target: not listed separately
Assay: Inhibition of rat intestinal maltase
Conditions: not given

pIC50 | SMILES
6.13 | C[C@]1(CO)NC[C@@H](O)[C@@H]1O

Target: T1, Lysosomal alpha-glucosidase (Homo sapiens, UniProt P10253)
Conditions: dose 10.0 µM
Description: Stabilization of recombinant human GAA using 4-methylumbelliferyl-alpha-D-glucopyranoside as substrate assessed as relative fluorescence intensity by measuring midpoint temperature protein denaturation at 10 uM by thermal shift assay (Rvb = 58.6 degC)

Tm | SMILES
69.5 °C | C[C@]1(CO)NC[C@H](O)[C@@H](O)[C@@H]1O
70.2 °C | CCCC[C@]1(CO)NC[C@H](O)[C@@H](O)[C@@H]1O

Target: T1, Lysosomal alpha-glucosidase
Assay: Inhibition of human GAA using 4-methylumbelliferyl-alpha-D-glucopyranoside as substrate preincubated for 45 min followed by substrate addition and measured after 30 min by fluorescence spectrophotometer analysis
Conditions: not given

pKi | SMILES
6.68 | CCN1C[C@H](O)[C@@H](O)[C@H](O)[C@H]1CO
6.68 | CCCCCN1C[C@H](O)[C@@H](O)[C@H](O)[C@H]1CO
5.22 | CC[C@]1(CO)NC[C@H](O)[C@@H](O)[C@@H]1O
7.72 | CCCCC[C@]1(CO)NC[C@H](O)[C@@H](O)[C@@H]1O
8.33 | CCCCCCC[C@]1(CO)NC[C@H](O)[C@@H](O)[C@@H]1O
4.43 | C[C@]1(CO)NC[C@H](O)[C@@H](O)[C@@H]1O
6.70 | CCCCN1C[C@H](O)[C@@H](O)[C@H](O)[C@H]1CO
5.60 | CCCCCCC[C@@]1(CO)NC[C@H](O)[C@@H](O)[C@@H]1O
6.89 | CCCCCCN1C[C@H](O)[C@@H](O)[C@H](O)[C@H]1CO
6.44 | CCCN1C[C@H](O)[C@@H](O)[C@H](O)[C@H]1CO
8.21 | CCCCCC[C@]1(CO)NC[C@H](O)[C@@H](O)[C@@H]1O
7.23 | CCC[C@]1(CO)NC[C@H](O)[C@@H](O)[C@@H]1O
7.43 | CCCC[C@]1(CO)NC[C@H](O)[C@@H](O)[C@@H]1O
7.02 | CCCCCCCN1C[C@H](O)[C@@H](O)[C@H](O)[C@H]1CO

Target: not listed separately
Assay: Inhibition of Lysosomal alpha-glucosidase in Aspergillus niger
Conditions: not given

pIC50 | SMILES
6.72 | OC[C@H]1NC[C@@H](O)[C@H]1O

Target: not listed separately
Assay: Inhibition of Maltase (unknown origin)
Set-up: species or system Homo sapiens
Conditions: not given

pIC50 | SMILES
4.26 | OC[C@H]1NC[C@@H](O)[C@@H]1O

Target: not listed separately
Assay: Inhibition of Endoplasmic reticulum alpha-glucosidase (unknown origin)
Set-up: species or system Homo sapiens
Conditions: not given

pIC50 | SMILES
5.85 | OC[C@H]1NC[C@H](O)[C@@H](O)[C@@H]1O [DUVOGLUSTAT]

Target: not listed separately
Assay: Inhibition of Glycosidase (unknown origin)
Set-up: species or system Homo sapiens
Conditions: not given

pIC50 | SMILES
6.10 | C[C@@]1(O)[C@H](O)CN[C@@H]1CO
4.92 | C[C@@]1(O)CN[C@H](CO)[C@@H]1O
6.00 | C[C@]1(CO)NC[C@H](O)[C@@H](O)[C@@H]1O
4.30 | C[C@@H]1NC[C@@H](O)[C@H](O)[C@]1(C)O

SMILES | pIC50
C[C@]1(O)CN2C[C@H](O)[C@H](O)[C@@H]2[C@@H](O)[C@@H]1O | 6.70

Target: Sucrase-isomaltase, intestinal (Homo sapiens, UniProt P14410)
Sequence (P14410 2-1007 limits assumed): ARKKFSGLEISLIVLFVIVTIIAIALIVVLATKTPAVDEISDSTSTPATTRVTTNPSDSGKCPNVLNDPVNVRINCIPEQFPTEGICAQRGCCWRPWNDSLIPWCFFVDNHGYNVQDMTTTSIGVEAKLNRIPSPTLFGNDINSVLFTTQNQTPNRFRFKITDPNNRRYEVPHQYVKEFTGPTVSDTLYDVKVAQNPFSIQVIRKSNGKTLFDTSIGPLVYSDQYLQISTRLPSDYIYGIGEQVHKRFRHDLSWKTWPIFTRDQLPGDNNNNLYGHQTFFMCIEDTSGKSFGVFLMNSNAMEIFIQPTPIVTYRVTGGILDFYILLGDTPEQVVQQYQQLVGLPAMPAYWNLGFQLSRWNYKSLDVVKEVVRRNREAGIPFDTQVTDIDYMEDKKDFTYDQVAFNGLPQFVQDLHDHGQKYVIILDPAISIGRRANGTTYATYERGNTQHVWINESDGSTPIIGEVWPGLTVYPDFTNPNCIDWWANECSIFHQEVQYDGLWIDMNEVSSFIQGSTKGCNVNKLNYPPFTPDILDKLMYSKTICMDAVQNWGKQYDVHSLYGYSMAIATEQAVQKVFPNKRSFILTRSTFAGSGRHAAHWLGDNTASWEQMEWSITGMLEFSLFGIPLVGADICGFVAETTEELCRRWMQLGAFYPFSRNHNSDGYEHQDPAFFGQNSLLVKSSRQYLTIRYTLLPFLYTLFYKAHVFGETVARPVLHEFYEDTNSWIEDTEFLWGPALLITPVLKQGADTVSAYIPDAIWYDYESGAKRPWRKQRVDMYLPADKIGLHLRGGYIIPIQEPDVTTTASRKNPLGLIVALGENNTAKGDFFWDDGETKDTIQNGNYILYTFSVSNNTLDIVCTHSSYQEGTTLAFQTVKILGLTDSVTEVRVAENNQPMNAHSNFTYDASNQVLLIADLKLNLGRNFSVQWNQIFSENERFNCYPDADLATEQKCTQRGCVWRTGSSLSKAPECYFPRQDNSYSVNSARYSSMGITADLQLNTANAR
Sequence (P14410 1008-1827 limits assumed): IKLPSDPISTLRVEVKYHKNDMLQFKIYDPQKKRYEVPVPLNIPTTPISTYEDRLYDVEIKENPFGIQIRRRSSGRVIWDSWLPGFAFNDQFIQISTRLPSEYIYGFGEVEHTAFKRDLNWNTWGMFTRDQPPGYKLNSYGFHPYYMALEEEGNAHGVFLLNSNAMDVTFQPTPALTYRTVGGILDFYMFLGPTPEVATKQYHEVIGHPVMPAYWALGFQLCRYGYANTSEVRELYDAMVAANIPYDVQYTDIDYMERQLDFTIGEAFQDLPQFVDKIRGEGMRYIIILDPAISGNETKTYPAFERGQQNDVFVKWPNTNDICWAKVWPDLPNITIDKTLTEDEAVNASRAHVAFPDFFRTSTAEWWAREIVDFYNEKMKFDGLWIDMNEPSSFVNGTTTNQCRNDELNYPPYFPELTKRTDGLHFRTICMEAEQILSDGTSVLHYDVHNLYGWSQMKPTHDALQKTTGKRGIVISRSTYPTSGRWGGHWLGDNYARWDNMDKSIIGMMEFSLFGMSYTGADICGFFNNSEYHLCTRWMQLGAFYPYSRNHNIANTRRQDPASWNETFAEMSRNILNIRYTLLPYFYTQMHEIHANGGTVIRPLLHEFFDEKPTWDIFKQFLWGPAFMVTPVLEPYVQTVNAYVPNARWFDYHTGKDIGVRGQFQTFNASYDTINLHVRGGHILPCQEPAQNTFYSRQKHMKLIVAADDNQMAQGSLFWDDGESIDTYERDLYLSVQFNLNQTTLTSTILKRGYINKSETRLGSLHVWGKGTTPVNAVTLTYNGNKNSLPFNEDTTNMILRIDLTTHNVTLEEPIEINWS
Assay: Inhibition of Sucrase (unknown origin)
Conditions: not given

SMILES | pIC50
OC[C@@H]1NC[C@H](O)[C@H]1O | 6.00
